Reference: patent publication US20250101436A1, “APTAMERS AND SMALL MOLECULE LIGANDS” (MeiraGTx UK II Limited, priority 2021, published 2025)

Test system: luciferase gene expression in HEK 293 cells in response to Comp. 004
Experiment: Screen of riboswitch constructs with 12C6-1 variant aptamers (libraries N1-N5) against Comp. 004, luciferase in HEK 293 cells
Assay type: cell-based, human
Settings: library N1 (J2-4), HEK 293, 25 M [sic] Comp. 004
Text: Cloning of riboswitch constructs containing 12C6-1 variant aptamer sequences: 12C6-1 aptamer sequence was used as template, and nucleobases were randomized at certain position in the sequence. Aptamers incorporating random mutagenesis were synthesized by Integrated DNA Technologies, Inc. Golden Gate cloning strategy (New England Biolabs, NEB) was used to clone the synthesized aptamer sequences into intron-exon-intron cassette to replace the 12C6-1 aptamer in the Luci-12C6-1 riboswitch construct, generating riboswitch constructs containing variant aptamer sequences.
To further improve the riboswitch activity in responding to Comp. 004 and related compounds, the aptamer sequence 12C6-1 was subject to mutagenesis to generate aptamer variants, and the riboswitches containing the variant aptamers were screened against Comp. 004 for the ones that have improved dynamic range of induced gene expression (the fold induction), in comparison with the fold induction by parental riboswitch construct Luci-12C6-1. […] These loop or junction region alone or together with stem region in proximity were chosen for random mutagenesis to generate riboswitches with re-engineered aptamer sequences with improved activity.
Five aptamer libraries N1, N2, N3, N4 and N5 were generated by randomizing nucleotides at positions in J2-4, J2-3/J3-3a/J3a-2/P3, L3a, J4-5/J5-4/P4 and L5 regions of the parent 12C6-1 sequence, respectively (see FIGS. 3a and 3b). Single bacterial colonies were picked and plasmids containing variant riboswitch constructs were screened in HEK 293 cells for improved gene regulation activity in response to 25 µM Comp. 004 as compared to parent riboswitch construct Luci-12C6-1.

Going from “N1_2D1 (CTGGGGAGTCCTTCATGCGGGGC; chemistry not given here)” to “N1_2D2 (CTGGGGAGTCCTTCATGCGGGGC; chemistry not given here)”, the “Fold (induction of luciferase gene expression)” value (shortened to “Fold”) rises from 4.38 fold to 102.23 fold.

First: N1_2D3 (CTGGGGAGTCCTTCATGCGGGGC; chemistry not given here)
Second: N1_2D5 (CTGGGGAGTCCTTCATGCGGGGC; chemistry not given here)
The “Fold” value of the first is lower: 5.40 fold for the first, 35.71 fold for the second.

Compared with “N1_2D6 (CTGGGGAGTCCTTCATGCGGGGC; chemistry not given here)”, “N1_2D7 (CTGGGGAGTCCTTCATGCGGGGC; chemistry not given here)” is lower in “Fold” value: 13.57 fold for the first, 2.16 fold for the second.

Compared with “N1_2D9 (CTGGGGAGTCCTTCATGCGGGGC; chemistry not given here)”, “N1_2D10 (CTGGGGAGTCCTTCATGCGGGGC; chemistry not given here)” is higher in “Fold” value: 9.74 fold for the first, 15.53 fold for the second.

Going from “N1_2D11 (CTGGGGAGTCCTTCATGCGGGGC; chemistry not given here)” to “N1_2D12 (CTGGGGAGTCCTTCATGCGGGGC; chemistry not given here)”, the “Fold” value rises from 1.96 fold to 3.26 fold.

Going from “N1_2E2 (CTGGGGAGTCCTTCATGCGGGGC; chemistry not given here)” to “N1_2E3 (CTGGGGAGTCCTTCATGCGGGGC; chemistry not given here)”, the “Fold” value falls from 7.86 fold to 5.79 fold.

Going from “N1_2E4 (CTGGGGAGTCCTTCATGCGGGGC; chemistry not given here)” to “N1_2E5 (CTGGGGAGTCCTTCATGCGGGGC; chemistry not given here)”, the “Fold” value rises from 10.44 fold to 35.05 fold.

Compared with “N1_2E6 (CTGGGGAGTCCTTCATGCGGGGC; chemistry not given here)”, “N1_2E7 (CTGGGGAGTCCTTCATGCGGGGC; chemistry not given here)” is lower in “Fold” value: 30.39 fold for the first, 19.91 fold for the second.

Compared with “N1_2E8 (CTGGGGAGTCCTTCATGCGGGGC; chemistry not given here)”, “N1_2E9 (CTGGGGAGTCCTTCATGCGGGGC; chemistry not given here)” is higher in “Fold” value: 5.81 fold for the first, 11.27 fold for the second.

Compared with “N1_2E10 (CTGGGGAGTCCTTCATGCGGGGC; chemistry not given here)”, “N1_2E11 (CTGGGGAGTCCTTCATGCGGGGC; chemistry not given here)” is higher in “Fold” value: 2.86 fold for the first, 15.45 fold for the second.

Compared with “N1_2F1 (CTGGGGAGTCCTTCATGCGGGGC; chemistry not given here)”, “N1_2F3 (CTGGGGAGTCCTTCATGCGGGGC; chemistry not given here)” is higher in “Fold” value: 8.34 fold for the first, 15.56 fold for the second.

Going from “N1_2F4 (CTGGGGAGTCCTTCATGCGGGGC; chemistry not given here)” to “N1_2F6 (CTGGGGAGTCCTTCATGCGGGGC; chemistry not given here)”, the “Fold” value rises from 4.74 fold to 185.92 fold.

Going from “N1_2F7 (CTGGGGAGTCCTTCATGCGGGGC; chemistry not given here)” to “N1_2F9 (CTGGGGAGTCCTTCATGCGGGGC; chemistry not given here)”, the “Fold” value falls from 41.88 fold to 1.71 fold.

First: N1_2F10 (CTGGGGAGTCCTTCATGCGGGGC; chemistry not given here)
Second: N1_2F11 (CTGGGGAGTCCTTCATGCGGGGC; chemistry not given here)
The “Fold” value of the first is lower: 10.84 fold for the first, 150.18 fold for the second.

Compared with “N1_2F12 (CTGGGGAGTCCTTCATGCGGGGC; chemistry not given here)”, “N1_2G1 (CTGGGGAGTCCTTCATGCGGGGC; chemistry not given here)” is higher in “Fold” value: 1.83 fold for the first, 100.11 fold for the second.

Compared with “N1_2G3 (CTGGGGAGTCCTTCATGCGGGGC; chemistry not given here)”, “N1_2G4 (CTGGGGAGTCCTTCATGCGGGGC; chemistry not given here)” is lower in “Fold” value: 36.58 fold for the first, 9.06 fold for the second.

Compared with “N1_2G6 (CTGGGGAGTCCTTCATGCGGGGC; chemistry not given here)”, “N1_2G7 (CTGGGGAGTCCTTCATGCGGGGC; chemistry not given here)” is lower in “Fold” value: 11.00 fold for the first, 2.06 fold for the second.

Compared with “N1_2G8 (CTGGGGAGTCCTTCATGCGGGGC; chemistry not given here)”, “N1_2G9 (CTGGGGAGTCCTTCATGCGGGGC; chemistry not given here)” is higher in “Fold” value: 8.46 fold for the first, 30.93 fold for the second.

Compared with “N1_2G10 (CTGGGGAGTCCTTCATGCGGGGC; chemistry not given here)”, “N1_2H1 (CTGGGGAGTCCTTCATGCGGGGC; chemistry not given here)” is higher in “Fold” value: 4.40 fold for the first, 9.41 fold for the second.

Going from “N1_2H2 (CTGGGGAGTCCTTCATGCGGGGC; chemistry not given here)” to “N1_2H5 (CTGGGGAGTCCTTCATGCGGGGC; chemistry not given here)”, the “Fold” value falls from 2.85 fold to 1.62 fold.

First: N1_2H7 (CTGGGGAGTCCTTCATGCGGGGC; chemistry not given here)
Second: N1_2H8 (CTGGGGAGTCCTTCATGCGGGGC; chemistry not given here)
The “Fold” value of the first is lower: 1.16 fold for the first, 1.45 fold for the second.

Going from “N1_2H9 (CTGGGGAGTCCTTCATGCGGGGC; chemistry not given here)” to “N1_2H10 (CTGGGGAGTCCTTCATGCGGGGC; chemistry not given here)”, the “Fold” value rises from 1.91 fold to 16.82 fold.

“N1_2H11 (CTGGGGAGTCCTTCATGCGGGGC; chemistry not given here)” was tested, and the “Fold” value was 2.83 fold.

Same assay, conditions: library N2 variant aptamers (J2-3, P3-J3-3a, J3a-2 randomized) of 12C6-1 in riboswitch constructs; in response to Comp. 004; HEK 293 cells

Compared with “N2_2A1 (CTGGGGAGTCCTTCATGC; chemistry not given here)”, “N2_2A2 (CTGGGGAGTCCTTCATGC; chemistry not given here)” is lower in “Fold” value: 1.0 fold for the first, 0.7 fold for the second.

Going from “N2_2A3 (CTGGGGAGTCCTTCATGC; chemistry not given here)” to “N2_2A5 (CTGGGGAGTCCTTCATGC; chemistry not given here)”, the “Fold” value rises from 0.8 fold to 1.0 fold.

First: N2_2A6 (CTGGGGAGTCCTTCATGC; chemistry not given here)
Second: N2_2A7 (CTGGGGAGTCCTTCATGC; chemistry not given here)
The “Fold” value of the first is higher: 1.2 fold for the first, 0.9 fold for the second.

Compared with “N2_2A8 (CTGGGGAGTCCTTCATGC; chemistry not given here)”, “N2_2A9 (CTGGGGAGTCCTTCATGC; chemistry not given here)” is higher in “Fold” value: 1.0 fold for the first, 1.1 fold for the second.

“N2_2A10 (CTGGGGAGTCCTTCATGC; chemistry not given here)” and “N2_2A11 (CTGGGGAGTCCTTCATGC; chemistry not given here)” are the same in “Fold” value: 1.1 fold for the first, 1.1 fold for the second.

First: N2_2A12 (CTGGGGAGTCCTTCATGC; chemistry not given here)
Second: N2_2B1 (CTGGGGAGTCCTTCATGC; chemistry not given here)
The “Fold” value of the first is higher: 1.1 fold for the first, 1.0 fold for the second.

Compared with “N2_2B3 (CTGGGGAGTCCTTCATGC; chemistry not given here)”, “N2_2B4 (CTGGGGAGTCCTTCATGC; chemistry not given here)” is lower in “Fold” value: 1.2 fold for the first, 0.8 fold for the second.

Going from “N2_2B5 (CTGGGGAGTCCTTCATGC; chemistry not given here)” to “N2_2B6 (CTGGGGAGTCCTTCATGC; chemistry not given here)”, the “Fold” value falls from 1.0 fold to 0.8 fold.
